Laboratory results as given in patent publication US11518764B2, “Substituted heteroaryls as inhibitors of the BCL6 BTB domain protein-protein interaction” (Ontario Institute for Cancer Research (OICR), priority 2018, dated 2022).

Legend:
Karpas422 cells = assay: Tumor cell growth inhibition assay; type: cell-based; settings: Homo sapiens, KARPAS-422, 144 h, read-out: Tumor Growth Inhibition in Karpas-422 (IC50, uM), Karpas422 cells, six days, ATPlite
Outline: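 Growth inhibition was measured by ATPlite luminescence after six days of culture at 37° C. in 5% CO2. Karpas422 cells were seeded at 2,000 per well in Alpha-MEM plus 10% FBS. Compounds were given as a 10-point concentration series with a highest dose of 5 uM.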

[1] = test system: BCL6 reporter construct (3xBCL6-TK-Luc) in SuDHL4 cells; assay: Cell-based luciferase assay; settings: Homo sapiens, SU-DHL-4, 48 h, read-out: Luciferase-Assay EC50, uM), SuDHL4-3xBCL6-TK-Luc cells, two days, high dose 10 uM
Outline: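 SuDHL4 cells stably carrying a 3×BCL6-site TK-promoter firefly luciferase reporter, seeded at 15,000 cells/well, were dosed over a 10-point range (top 10 uM) and grown two days at 37 °C, 5% CO2. Luminescence then read after adding neolite reagent at room temperature.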

BCL6 BTB domain = BCL6 BTB domain (Homo sapiens (Human), UniProt P41182); assay: Surface plasmon resonance (SPR) assay; type: binding; settings: BCL6 BTB domain captured on SA chip, single cycle kinetics

SMILES	IC50 (Karpas422 cells)	EC50 [1]	Kd (BCL6 BTB domain)
C[C@H]1COCCN1c1cc(NC(=O)Cn2cc(-c3cc(C(N)=O)c(O)c(F)c3F)c3c(=O)n(CC#Cc4cnn(C)c4)cnc32)c(Cl)cn1 [Compound I-321]	0.437 µM	0.405 µM	9.19 nM
C=C(C)c1nc2c(c(-c3cc(Cl)c(O)c(C(N)=O)c3)cn2CC(=O)Nc2cc(N3CCN(C)C[C@@H]3C)ncc2Cl)c(=O)n1C [Compound I-322]	1.19 µM	3.09 µM	34 nM
COCn1c(Cl)nc2c(c(-c3cc(Cl)c(O)c(C(N)=O)c3)cn2CC(=O)Nc2cc(N3CCN(C)C[C@@H]3C)ncc2Cl)c1=O [Compound I-323]	0.914 µM	1.09 µM	100 nM
CN1CC2CC1CN2c1cc(NC(=O)Cn2cc(-c3cc(C(N)=O)c(O)c(F)c3F)c3c(=O)n(C)cnc32)c(Cl)cn1 (stereo not drawn) [Compound I-324]	10 µM	10 µM	264 nM
CN1CCOC2CN(c3cc(NC(=O)Cn4cc(-c5cc(C(N)=O)c(O)c(F)c5F)c5c(=O)n(C)cnc54)c(Cl)cn3)CC21 (stereo not drawn) [Compound I-325]	1.13 µM	2 µM	40.8 nM
CN(C)C1CN(c2cc(NC(=O)Cn3cc(-c4cc(C(N)=O)c(O)c(F)c4F)c4c(=O)n(C)cnc43)c(Cl)cn2)C1 [Compound I-326]	2 µM	2.35 µM	64.5 nM
CN1CCN(c2cc(NC(=O)Cn3cc(-c4cc(C(N)=O)c(O)c(F)c4F)c4c(=O)n(C)cnc43)c(Cl)cn2)C(C)(C)C1 [Compound I-327]	2.07 µM	3 µM	271 nM
Cn1cnc2c(c(-c3cc(Cl)c(O)c(C(N)=O)c3)cn2CC(=O)Nc2nc(N3CCOCC3)c(F)cc2Cl)c1=O [Compound I-328]	2.66 µM	3.76 µM	239 nM
CN1CCOC2CN(c3cc(NC(=O)Cn4cc(-c5cc(Cl)c(O)c(C(N)=O)c5)c5c(=O)n(C)cnc54)c(Cl)cn3)CC21 (stereo not drawn) [Compound I-329]	0.173 µM	0.345 µM	13.4 nM
CN(C)CC1COCCN1c1cc(NC(=O)Cn2cc(-c3cc(Cl)c(O)c(C(N)=O)c3)c3c(=O)n(C)cnc32)c(Cl)cn1 (stereo not drawn) [Compound I-330]	0.56 µM	0.89 µM	39.4 nM
CCN1CCN(c2cc(NC(=O)Cn3cc(-c4cc(Cl)c(O)c(C(N)=O)c4)c4c(=O)n(C)cnc43)c(Cl)cn2)[C@@H](C)C1 [Compound I-331]	0.176 µM	0.254 µM	17.8 nM
Cc1cc(NC(=O)Cn2cc(-c3cc(C(N)=O)c(O)c(F)c3F)c3c(=O)n(C)cnc32)c(Cl)cn1 [Compound I-333]	4.21 µM	2.42 µM	145 nM
Cc1cc(NC(=O)Cn2cc(-c3cc(Cl)c(O)c(C(N)=O)c3)c3c(=O)n(C)cnc32)c(Cl)cn1 [Compound I-334]	0.829 µM	0.475 µM	30.5 nM
C[C@H]1CNCCN1c1cc(NC(=O)Cn2cc(-c3cc(C(N)=O)c(O)c(F)c3F)c3c(=O)n(C)cnc32)c(Cl)cn1 [Compound I-335]	5.1 µM	6.92 µM	24.6 nM
CC1CN(C)CC(C)N1c1cc(NC(=O)Cn2cc(-c3cc(Cl)c(O)c(C(N)=O)c3)c3c(=O)n(C)cnc32)c(Cl)cn1 (stereo not drawn) [Compound I-340]	0.0759 µM	0.0724 µM	11.6 nM
C[C@H]1CNCCN1c1cc(NC(=O)Cn2cc(-c3cc(Cl)c(O)c(C(N)=O)c3)c3c(=O)n(C)cnc32)c(Cl)cn1 [Compound I-342]	0.27 µM	0.312 µM	11.3 nM
C[C@H]1CN(CC2CC2)CCN1c1cc(NC(=O)Cn2cc(-c3cc(Cl)c(O)c(C(N)=O)c3)c3c(=O)n(C)c(C(F)(F)F)nc32)c(Cl)cn1 [Compound I-343]	0.383 µM	0.641 µM	180 nM

SMILES	IC50 (Karpas422 cells)	EC50 [1]	Kd (BCL6 BTB domain)
Cc1nc2c(c(-c3cc(C(N)=O)c(O)c(F)c3F)cn2CC(=O)Nc2cc(N3CCN(C4COC4)C[C@@H]3C)ncc2Cl)c(=O)n1C [Compound I-344]	0.701 µM	0.317 µM	13.8 nM
C[C@H]1CN(C2COC2)CCN1c1cc(NC(=O)Cn2cc(-c3cc(Cl)c(O)c(C(N)=O)c3)c3c(=O)n(C)cnc32)c(Cl)cn1 [Compound I-345]	0.166 µM	0.0927 µM	6.15 nM
CN(C)C1CN(c2cc(NC(=O)Cn3cc(-c4cc(Cl)c(O)c(C(N)=O)c4)c4c(=O)n(C)cnc43)c(Cl)cn2)C1 [Compound I-347]	0.454 µM	0.603 µM	57.4 nM
CN1CC2CCC(C1)N2c1cc(NC(=O)Cn2cc(-c3cc(Cl)c(O)c(C(N)=O)c3)c3c(=O)n(C)cnc32)c(Cl)cn1 [Compound I-348]	0.15 µM	0.479 µM	13.4 nM
C[C@H]1CNCCN1c1cc(NC(=O)Cn2cc(-c3cc(C(N)=O)c(O)c4c3OCO4)c3c(=O)n(C)cnc32)c(Cl)c(F)n1 [Compound I-349]	0.0873 µM	0.131 µM	3.29 nM
Cn1cnc2c(c(-c3cc(Cl)c(O)c(C(N)=O)c3)cn2CC(=O)Nc2cc(N3CCOC4(CCC4)C3)ncc2Cl)c1=O [Compound I-350]	0.897 µM	0.486 µM	63.9 nM
Cn1cnc2c(c(-c3cc(Cl)c(O)c(C(N)=O)c3)cn2CC(=O)Nc2cc(N3CC4(CCOC4)C3)ncc2Cl)c1=O [Compound I-351]	1.2 µM	0.591 µM	40.1 nM
CN1CCN(c2cc(NC(=O)Cn3cc(-c4cc(Cl)c(O)c(C(N)=O)c4)c4c(=O)n(C)cnc43)c(Cl)cn2)C(C)(C)C1 [Compound I-352]	0.346 µM	0.79 µM	59.7 nM
C[C@@H]1CN(c2cc(NC(=O)Cn3cc(-c4cc(C(N)=O)c(O)c(F)c4F)c4c(=O)n(C)cnc43)c(Cl)cn2)C[C@H](C)N1C [Compound I-353]	0.648 µM	1.35 µM	75 nM
CO[C@@H]1CCN(c2cc(NC(=O)Cn3cc(-c4cc(C(N)=O)c(O)c(F)c4F)c4c(=O)n(C)cnc43)c(Cl)cn2)C1 [Compound I-354]	1.27 µM	1.02 µM	54.8 nM
CCN1CCN(c2cc(NC(=O)Cn3cc(-c4cc(C(N)=O)c(O)c5c4OCO5)c4c(=O)n(C)cnc43)c(Cl)c(F)n2)[C@@H](C)C1 [Compound I-357]	0.0288 µM	0.0322 µM	1.86 nM
C[C@H]1CN(C2CCC2)CCN1c1cc(NC(=O)Cn2cc(-c3cc(Cl)c(O)c(C(N)=O)c3)c3c(=O)n(C)cnc32)c(Cl)cn1 [Compound I-358]	0.341 µM	0.256 µM	22.7 nM
C[C@H]1CN(C2CCC2)CCN1c1cc(NC(=O)Cn2cc(-c3cc(C(N)=O)c(O)c(F)c3F)c3c(=O)n(C)cnc32)c(Cl)cn1 [Compound I-359]	1.34 µM	0.521 µM	42.2 nM
CC(C)[C@H]1CN(C)CCN1c1cc(NC(=O)Cn2cc(-c3cc(Cl)c(O)c(C(N)=O)c3)c3c(=O)n(C)cnc32)c(Cl)cn1 [Compound I-360]	0.778 µM	0.659 µM	30.9 nM
CC(C)[C@H]1CN(C)CCN1c1cc(NC(=O)Cn2cc(-c3cc(C(N)=O)c(O)c(F)c3F)c3c(=O)n(C)cnc32)c(Cl)cn1 [Compound I-361]	1.37 µM	1.33 µM	70.8 nM
Cn1cnc2c(c(-c3cc(Cl)c(O)c(C(N)=O)c3)cn2CC(=O)Nc2cc(N3CC4CC3CN4CC(F)(F)F)ncc2Cl)c1=O (stereo not drawn) [Compound I-362]	0.337 µM	0.226 µM	38 nM
